Legend:
[1] = system: carrageenan-induced thermal hyperalgesia; assay: Carrageenan Paw Hyperalgesia Test; type: in vivo; conditions: mouse, orally 30 mg per Kg, 90 minutes following oral dosing
Source text: Procedure for Testing Hyperalgesic Effect
The procedure used to detect the antihyperalgesic activity of a compound of the present invention for which there is a good correlation with human efficacy is the Carrageenan Paw Hyperalgesia Test (as described in Sammons, et al., Brain Research, 2000, 876, 48-54).
Male, CD-1 mice (Charles River Laboratories) weighing 22-30 g each at the time of testing are housed in a climate-controlled, virus free environment for at least 7 days prior to testing. Food and water are available ad libitum up to test time.
Test mice are […] by injecting an irritant (e.g., 0.02 mL of a 1.0% carrageenan solution in 0.9% saline) subcutaneously into the subplantar tissue of one of the hind paws to stimulate an acute inflammatory reaction. The response of the animal following carrageenan injection is subsequently evaluated at a fixed later time and verified to be hyperalgesic relative to a baseline response obtained immediately prior to carrageenan injection.
The mice were dosed orally with either Compound 1 dissolved in a suspension of 20% hydroxypropyl beta cyclodextrin in distilled water or with vehicle alone at a fixed time following carrageenan injection. […] Response latencies were subsequently evaluated at fixed times following oral dosing to assess reversal of hyperalgesia caused by treatment with Compound 1 as compared to vehicle treatment. […]

[2] = system: maximal electroshock extensor seizure; assay: Mouse maximal electroshock test (MES) anticonvulsant model; type: in vivo; conditions: po, orally administered, read-out: MES Response ED50
Description: Procedure for Testing in Mouse Anticonvulsant Model
The activity of the present compounds as anticonvulsant agents was determined using a standard mouse “maximal electroshock test” (MES). In this test, activity was indicated by a block of the […] extensor seizure, as described by Swinyard, et al. (J. Pharmacol. Exptl. Therap., 1952, 106, 319). A more recent description of current anticonvulsant drug screening is given in Swinyard, et al., in Epilepsia, 1978, 19, 409.
The anticonvulsant activity of the instant compounds is shown in Table 5 and was evaluated according to the Swinyard (1952) method. The abbreviations used in the table have the following meanings: mpk refers to the dose orally administered in “mg per Kg;” and, ED50 refers to the “50% Effective Dose” orally administered in mpk. The values marked by an * represent the number of mice protected/number of mice tested; therefore, a value of 3/3 represents that the number of mice protected matched the number of mice tested at the indicated dose.

Cn1cc(C(=O)c2ccncc2)cc1C(=O)c1ccc(Cl)cc1 [Cpd 1, [5-(4-Chlorobenzoyl)-1-methyl-1H-pyrrol-3-yl]pyridin-4-ylmethanone]
% Recovery (reversal of hyperalgesia) [1]: 84%
ED50 [2]: 157 mg/kg

Reference: US6897319B2, “Useful aroyl pyrrole heteroaryl methanones and methanols” (Ortho-McNeil Pharmaceutical, Inc., priority 2001, dated 2005)
